Measurements reported in ChEMBL document CHEMBL1131687, “Dienyl diketones as anticancer agents: synthesis and biological evaluation of some aromatic derivatives” (1999).
Converted amounts (≈) assume the structure as drawn.

Experiments:
Assay type in all cases: functional
[1] = In vitro cytotoxicity against the growth of Colon-205 cancer cell line; details: Homo sapiens, Cancer cell lines; read-out: LD50 (the source's name)
[2] = tested on: HEp-2; assay: In vitro cytotoxicity against the growth of Hep-2 cell line; details: Homo sapiens, read-out: LD50 (the source's name)
[3] = tested on: HeLa; assay: In vitro cytotoxicity against the growth of HeLa-cell line; details: Homo sapiens, read-out: LD50 (the source's name)
[4] = tested on: KB 3-1; assay: In vitro cytotoxicity against the growth of KB-cell line; details: Homo sapiens, read-out: LD50 (the source's name)

Compound | CC50 [1] [µg/mL] | CC50 [2] [µg/mL] | CC50 [3] [µg/mL] | CC50 [4] [µg/mL]
CCCCCCC(=O)/C=C\C=C\C(=O)c1ccc(C(=O)OC)cc1 | 0.8 (≈ 2.44 µM) | > 10 | > 10 | > 10
CCC(=O)/C=C/C=C\C(=O)CC(C)C | > 10 | > 10 | > 10 | > 10
CCC(=O)/C=C/C=C\C(C)=O | > 10 | > 10 | > 10 | > 10
CC(=O)/C=C\C=C\C(=O)c1ccccc1 | 1 (≈ 4.99 µM) | > 10 | > 10 | 0.8 (≈ 4 µM)
CCC(=O)/C=C\C=C\C(=O)c1ccccc1 | 1 (≈ 4.67 µM) | > 10 | > 10 | > 10
CCCCCCC(=O)/C=C/C=C/C(=O)c1ccc(C(=O)OC)cc1 | > 10 | > 10 | > 10 | > 10
